In a melting point compilation (Tetko et al.; mined from patent text by program, amines drawn as free bases though some values may be those of a salt):

Compound	melting point [°C]
Cc1nc(-n2cc(-c3ccc(OCc4ccccc4)cc3)nn2)sc1C(=O)NCc1ccccc1	237 to 240
O=c1nc(CN2CCC[C@H](OCc3cc(Cl)cc(Cl)c3)[C@@H]2c2ccccc2)[nH][nH]1	> 220
O=C(NO)c1ccccn1	58 to 68
CCSN(C)C(=O)Nc1ccc(OC)c(Cl)c1	60
O=c1[nH]c(C(F)(F)F)nc2ccc(S(=O)(=O)O)cc12	> 330
COCCCNCc1noc([C@H](CCCC2CCCCC2)CC(=O)NO)n1	60
CCCc1c(C(C)C)nc(C(C)C)c(C(C)O)c1-c1ccc(F)cc1O (stereo not drawn)	152 to 153
OCC1CCc2[nH]c3ccc(F)cc3c2C1 (stereo not drawn)	107 to 109
Cc1cc([N+](=O)[O-])c2c(c1Cl)CC(C)O2 (stereo not drawn)	114 to 116
COc1ccc(Cn2nc(CO)c3cc(OC)c(OC)cc32)cc1OC	187
COC(=O)c1coc(-c2ncn3c2CN(C)C(=O)c2sccc2-3)n1	254 to 255
CCCn1nc2c(N)nc3ccccc3c2c1CCNC(=O)c1ccc(F)cc1	198 to 199
Cc1n[nH]c2cc(F)c(C3C(C#N)=C(C(F)F)NC(C(F)F)=C3C#N)cc12	282
CC(=O)Nc1ccc(-n2ccnc2S(=O)Cc2ccccc2N(C)C)nc1 (stereo not drawn)	168 to 170
COc1ccc(C=CC=C(C#N)C#N)cc1	160
CCCC(C)(C)c1nc(CC(=O)O)c(C)o1	97 to 98
CC(=O)c1ccccc1NC(=O)Cc1ccccc1	78
CCOC(=O)C(CCCCCCN1C(=O)c2ccccc2C1=O)(NC(C)=O)C(=O)OCC	68.5 to 70
Cc1cc(C)c2ncc(N(Cc3cc(C(C)(C)C)c(O)c(C(C)(C)C)c3)C(=O)Nc3ccc(F)cc3F)c(-c3ccccc3Cl)c2c1	124 to 126
Cn1cnc(COc2nn3c(-c4ccccc4)nnc3cc2-c2ccc(Cl)s2)n1	248 to 250
CCCCn1c(C)c(C)cc(Oc2nc3ccccc3o2)c1=O	106 to 108
CCCCCCCCCCCC(=O)NCCCCCC(=O)OO	70 to 75
CS(=O)(=O)N1CCN([C@@H](CNS(=O)(=O)c2ccc(OCc3ccc(C#N)cc3)cc2)C(=O)NO)CC1	108
NC(CO)(CO)C(=O)O	109 to 112

Compound	melting point [°C]
CN(C)C=Nc1nc(=O)n(S(=O)(=O)c2ccc(Cl)cc2)cc1F	207 to 210
O=C(NCc1cccnc1)c1ccc2n1Cc1ccccc1N(C(=O)CSc1ccc(Br)cc1)C2	136 to 137
C=CCc1c(O)cc(O)c(C)c1C(=O)OC	72 to 95
COC(=O)C(C)(C)C(O)CCOc1cc(C)ccc1C (stereo not drawn)	40.5 to 41
O=S(=O)(NCc1ccnnc1)c1cc(Br)cs1	120 to 122
COc1ccc(-c2cc(=O)c3ccc(OCC(O)CNC(C)C)cc3o2)cc1OC (stereo not drawn)	144 to 145
CCOC(=O)c1nc2ccc(CO)cc2n1OC	110
O=C(NC1CC2CC(N3CCN(c4ccccc4)CC3)CC2C1)c1ccccc1 (stereo not drawn)	211 to 212
CCOC(=O)c1nc2cc(Br)ccc2c(O)c1C(=O)OCC	234
O=c1c(Cc2cccnc2)cn2c3cc(F)ccc3c3cc(OCCCO)cc1c32	204 to 209
Fc1cccc(CN2CCN=C2S)c1	186 to 188
c1cn(CCCc2ccc(OCc3coc(-c4ccc(OCc5ccc6c(c5)OCO6)cc4)n3)cc2)cn1	124 to 125
CCOC(=O)Cc1c(C)n(-c2ncnc3cc(Cl)ccc23)c2ccc(OC)cc12	103 to 105
CCNc1c(OC)cc(C(=O)OC)cc1OC	50 to 51
CN(C)CCOc1cccc2cc(C(=O)Nc3ccccc3N)oc12	108 to 118
N#CC=Cc1cccc(Br)c1	62
CN1CC2CN(C)CC(C1)C2OCc1ccccc1 (stereo not drawn)	70 to 75
C=CCCCCCCCCC(=O)N[C@H]1CCCNC(=O)C1	83 to 84
CC(C)[C@@H]1C[C@H](O)[C@H](C2CCCCC2)NC1=O	97 to 99
COC(=O)C1C(c2cccc([N+](=O)[O-])c2)C(C(=O)OC(C)C)=C(C)NC1(O)c1ccccc1 (stereo not drawn)	134 to 135
NNC(=O)Nc1nccs1	166 to 167
O=Cc1cc2ccc3ccc4ccccc4c3c2o1	169
CCCCCCc1ccc(-c2ccc(C3CCC(C#N)(CCCCCC)CC3)cc2)cc1 (stereo not drawn)	66
Cc1cc(C(C)(C)C)cc2c1OCC(/C=C/C=C/C=C/C(=O)O)=C2	225 to 227

Compound	melting point [°C]
CS(=O)(=O)c1ccc(-c2cc(CO[N+](=O)[O-])nn2Cc2ccccc2)cc1	94 to 96
Nc1nc2cc(-c3cccc(C(=O)N4CCCC4)c3)ccc2c2c1nc(CO)n2CC1CCOCC1	281 to 284
COCOCc1nc(-c2ccccc2)oc1C=O	51 to 52
C=CCOC(=O)COc1cccc(NC(=O)NCC(=O)N(CC(=O)OC(C)(C)C)c2ccccc2C(=O)c2ccccc2)c1	134 to 136
COc1c(Cl)c(Cl)c2c(-c3ccccc3F)noc2c1Cl	120 to 140
S=c1[nH]ccn1C1CCc2ccccc2C1 (stereo not drawn)	233 to 234
CCCc1nc2c(N)nc3ccccc3c2n1CCCC(CC(C)C)=NO	207 to 209
C=CCC(NC(=O)c1ccc(OC)cc1)C(C)=O (stereo not drawn)	58 to 59
COCCNC(N)=Nc1nc(-c2cccc(CNC(=O)CN)c2)cs1	66 to 67
COC(=O)C(=NO)c1ccccc1	151 to 153
Cc1oc(-c2ccccc2)nc1CCc1ccc(CCCC2SC(=O)NC2=O)cc1 (stereo not drawn)	99 to 100
CC(CNCc1ccccc1O)NCc1ccccc1O (stereo not drawn)	57 to 58
CCCCNc1ccn2nccc2n1	75 to 76
COc1cc2c(cc1Nc1ncc(Cl)c(Nc3ccccc3S(=O)(=O)N3CCC(O)C3)n1)CCNC(=O)C2 (stereo not drawn)	86 to 97
COc1ccc(/C=C/S(=O)(=O)CS(=O)(=O)/C=C/c2ccc(O)c(OC)c2)cc1O	148 to 150
O=C1CCC(Cc2ccccc2)CC1	40 to 44
Cc1ccc(S(=O)(=O)Nc2ccc3nnc(C(=O)O)c(O)c3c2)cc1	272 to 273
Cc1nc(-c2ccc(C(F)(F)F)cc2)sc1CSc1ccc2c(c1)CC(C(=O)O)CO2 (stereo not drawn)	139 to 140
COC(=O)C(C(=O)Cc1ccccc1)C1c2ccccc2C(=O)N1c1ccc2ccc(Cl)nc2n1 (stereo not drawn)	185
N#Cc1ccc(C(Cl)=NNc2c(Cl)cc(C(F)(F)F)cc2Cl)cc1	168 to 169
CN(c1cccc2cc(-c3ncc(COCC(=O)O)s3)[nH]c12)S(=O)(=O)c1cccs1	197 to 198
NC(=O)C(=O)NCCC(F)=C(F)F	190 to 220
O=C(SSCCSSC(=O)N1CCOCC1)N1CCOCC1	178 to 179
CCn1c(=N)c(-c2ccc(-c3ccccc3)cc2)cc2cnc(Nc3ccccc3)nc21	245 to 249

The next lines start with the values.

melting point [°C]	Compound
233 to 234	CC(C)(C)C(NC(=O)c1cc(Cl)cc(Cl)c1)Nc1c(Nc2cccnc2Cl)c(=O)c1=O (stereo not drawn)
230	CCOC(=O)c1nc2cc(C(C(C)C)n3ccnc3)ccc2[nH]c1=O (stereo not drawn)
199 to 201	CC(C)(C)OC(=O)NC1CCc2ccccc2NC1=O (stereo not drawn)
122	CCON=C(CC)C1=C(O)CC(c2cc3c(cc2[N+](=O)[O-])OCO3)CC1=O (stereo not drawn)
220 to 223	OCc1nnc(-c2ccc(-c3ccccc3)cc2)n1-c1ccccc1F
225 to 227	CON1C=C2N=Nc3cc(-c4ccccc4)cnc3N2C1
126 to 134	CN1C(=O)C2C3CCC(CC3)C2(c2ccc(Cl)c(Cl)c2)C1=O (stereo not drawn)
109 to 111	Cc1ccccc1NCN1C(=O)CSC1=O
150	CCOC(=O)C1=C(C)NC(N=CN(C)C)=C(C(=O)OCC)C1c1cccc([N+](=O)[O-])c1 (stereo not drawn)
> 260	CCc1cc(OC)c(-c2csc(NC(=O)c3cc4ccccc4[nH]3)n2)c(OC)c1
244 to 246	Cc1nc(N)c2ncn(Cc3cc(-c4ccc(F)cc4)no3)c2c1C
159 to 165	NNC(=O)Cc1cc(C(=O)c2ccc(I)c(N)c2)sc1-c1ccccc1
55 to 58	COC(=O)Cc1ccc(OCCNC(=O)C2Cc3ccccc3N2S(=O)(=O)c2ccc(-c3cc(C)ccc3F)cc2)cc1 (stereo not drawn)
169 to 171	Cc1[nH]c(-c2ccccc2)nc1-c1ccc(Cl)c(Cl)c1
130 to 140	CON(C)C(=O)[C@H]1CC[C@H](NC(=O)OC(C)(C)C)CC1
75 to 77	CCCCCCCCOC(=O)C1=CC(=O)C(C(=O)OCCCCCCCC)=C(S(=O)(=O)c2ccc(C)cc2)C1=O

melting point [°C]	Compound
> 250	O=C1NCN2c3ccc(Cl)cc3[C@H]3CCN4CCC[C@H]1[C@H]4[C@H]32 (racemic)
223 to 225	CC(=O)OCC(=O)C1=CCC2C3CCC4=CC(=O)C=CC4(C)C3(F)C(O)CC12C (stereo not drawn)
119 to 120	CC(=O)C1CCCS1(=O)=O (stereo not drawn)
258 to 259	CC(=O)Nc1cc2c(c(C(=O)O)c1)NCCC2
111 to 112	CCCn1c(=O)c2c(nc(CO)n2C)n(CCC)c1=O
202 to 204	N[C@@H](CCC(=O)NCCS(=O)(=O)O)C(=O)O
183 to 185	O=C(NC(=O)N1CCCCC1)c1cc(Cl)nc(Cl)c1
159 to 162	O=C(OC(=O)N(c1ccccc1)c1ccccc1)N(c1ccccc1)c1ccccc1
152	CCOc1ccc2ccc(NC(=O)c3ccc(OC)cc3)nc2n1
126 to 127	Cc1ccccc1NNC1=NCCS1
55 to 57	Nc1c(Cl)cc(C(O)CNCCCCCCOCCCCCCc2ncccn2)cc1Cl (stereo not drawn)
102 to 103	Brc1ccc2c(c1)/C(=C/CCN1CCCC1)c1cc(Br)ccc1OC2
198 to 200	CCOC(=O)c1cn(C)c2nc3cc(N4CCNC(c5ccco5)C4)c(F)cc3cc2c1=O (racemic)
147 to 148	CCCn1c(=O)c2[nH]c(C3CCC(=O)C3)nc2n(CCC)c1=O (stereo not drawn)
233 to 236	COc1cccc(CCN2C(=O)COc3ccc(C=C4SC(=S)NC4=O)cc32)c1
